Publication PMC5538626, “Structural and functional analysis of the GABARAP interaction motif (GIM)” (EMBO Reports, 2017)
Ends that are not written are not given here.

What was measured:
[1] = biological target: T1, GABARAP R28K (Homo sapiens, UniProt O95166, R28K); assay: ITC titration of PLEKHM1-LIR peptide into GABARAP R28K mutant; type: binding
T1 construct: modified Ub-leader (ubiquitin fusion leader) (N); made in house; host or cells: E. coli NEB T7 Express
Description: The chimeric constructs were expressed as a His‐tag fusion protein in E. coli BL21(DE3) cells. The cells were induced with 0.3 mM IPTG at OD600 0.6 for 16 h at 26°C. The cell pellets were lysed using mechanical sonication in lysis buffer (20 mM Tris–HCl pH 9.0, 100 mM NaCl, 10 mM imidazole, supplemented with 0.1% Triton X‐100). The proteins were purified using Ni‐NTA beads (GE Healthcare) and the His‐tag was cleaved using thrombin (Invitrogen) at room temperature for 16 h. The last step was gel filtration chromatography using a Superdex S200/300 GL column (GE Healthcare). The proteins were concentrated using spin concentrators (Vivaspin). For ITC and NMR studies, the non‐labelled and stable isotopes labelled LC3 and GABARAP proteins were obtained based on the protocols described elsewhere 30, 39. Here, E. coli NEB T7 Express culture transformed with corresponding plasmids were grown till OD600 nm = 1.0 and protein expression was induced with 0.2 mM IPTG. The cultures were incubated at 25°C for 8–12 h before cell harvesting. Isolation and purification procedures were similar to those reported in Ref. 22, 40. Before experiments, all proteins and peptides were equilibrated with a buffer containing 50 mM Na2HPO4, 100 mM NaCl at pH 7.0, and supplied with 5 mM protease inhibitor cocktail.
The protocol for preparation of non‐labelled and ^13C,^15N‐labelled PLEKHM1‐LIR peptide was slightly modified to achieve highest yield of the peptide. The 50 ml M9 culture was inoculated with NEB T7 cell transformed with pET39_Ub63‐PLEKHM1‐LIR plasmid and grown overnight at 37°. The collected cells were resuspended in 2 l of either LB or M9 media contained 1.5 g ^15N‐labelled NH4Cl and 3.0 g of ^13C‐labelled glucose. The cultures were grown at 37° till A(600 nm) = 0.9 and supplied with 1 mM of IPTG to induce Ub63‐PLEKHM1‐LIR overexpression (3 h at 37°). After that cells were harvested by centrifugation, re‐suspended in buffer contained 50 mM Tris–HCl pH = 7.9, 200 mM NaCl, 5% glycerol, 0.1 mg/ml DNase A and 4 mM protease inhibitor cocktail. After cell lysis by French press, debris was removed by centrifugation and clear supernatant was applied onto the column contained Ni‐NTA Sepharose equilibrated with the loading buffer (50 mM Tris–HCl pH = 7.9, 250 mM NaCl, 1% glycerol and 20 mM imidazole). Elution was performed with 400 mM imidazole in the same buffer. An aliquot of pure Ub63‐PLEKHM1‐LIR fractions was further purified by gel filtration on Superdex75 26 × 60 column for control ITC and analytical size exclusion chromatography experiments, remaining fusion protein was processed with the TEV‐protease and PLEKHM1‐LIR peptide was purified to 95% purity by reverse Ni‐NTA chromatography and followed gel filtration on Superdex75 26 × 60 column. Peak maximum of peptide was detected at […] (void volume 115 ml). Pure peptide was concentrated in Amicon concentrators with cut‐off of 3 kDa (> 95% retention).
All titration experiments were performed at 25°C using a VP‐ITC microcalorimeter (Malvern Instruments Ltd, UK). The ITC data were analysed with the ITC‐Origin 7.0 software with a “one‐site” binding model. The peptides at concentrations of 0.4 mM were titrated into 0.020 mM LC3 and GABARAP proteins in 26 steps. The protein and peptide concentrations were calculated from the UV absorption at 280 nm by NanoDrop spectrophotometer (Thermo Fisher Scientific, DE, USA).

[2] = test system: LC3 subfamily proteins (LC3A, LC3B); assay: NMR titration of 15N-labelled LC3 proteins with PLEKHM1-LIR peptide; type: binding, human; settings: 298 K, 0.18 mM 15N-labelled protein, up to four times peptide excess
Description: All NMR experiments were performed at 298 K on Bruker Avance spectrometers operating at proton frequencies of 500, 600 and 700 MHz. Titration experiments were performed with a 0.18 mM ^15N‐labelled LC3 and GABARAP protein samples to which the non‐labelled PLEKHM1‐LIR peptide was added stepwise until four times excess to LC3 proteins or two times excess to the GABARAP proteins. Backbone HN resonances for selected mATG8 proteins in complex with the PLEKHM1‐LIR peptide were assigned using [^15N‐^1H]‐TROSY versions of 3D HNCACB experiment. For assignment of PLEKHM1‐LIR peptide backbone HN resonances in complexes with the LC3 and GABARAP proteins, [^15N‐^1H]‐TROSY versions of 3D HNCACB experiment and hCcconh‐TOCSY experiment were used.

T1 sequence (O95166 whole entry R28K, the tested form may be a part): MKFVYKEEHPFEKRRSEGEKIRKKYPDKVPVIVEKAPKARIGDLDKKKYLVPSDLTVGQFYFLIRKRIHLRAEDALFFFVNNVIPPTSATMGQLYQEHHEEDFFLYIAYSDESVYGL

Q: Which results are given for GAMGPQQEDEWVNVQYPD [PLEKHM1‐LIR WT]?
A: -T*DS ([1]; 25°C, pH 7.0, GABARAP R28K): +2.00 kcal mol-1; DG (ΔG) ([1]; 25°C, pH 7.0, GABARAP R28K): -8.55 kcal/mol; DH (ΔH) ([1]; 25°C, pH 7.0, GABARAP R28K): -10.55 ± 0.1 kcal/mol; DS (ΔS) ([1]; 25°C, pH 7.0, GABARAP R28K): -6.71 cal mol-1 K-1; KA ([1]; 25°C, pH 7.0, GABARAP R28K): 1.9±0.1 *10^6 M-1; N ([1]; 25°C, pH 7.0, GABARAP R28K): 1.05±0.01; smaller favorable enthalpy vs wild type GABARAP ([1]; within experimental error): 0.05 kcal/mol; exchange behaviour upon titration, LC3 subfamily [2]: intermediate exchange
